Among the data in ChEMBL document CHEMBL3045888, “Synthesis and anti-hypertensive activity of novel sulphadimidine derivatives” (Med Chem Res, 2012) are Activity values, retold here.

SMILES strings stand for the structures. The source made the active and inactive calls. No cut-off for these calls is given here.

The subject of this assay is Rattus norvegicus. In words: Antihypertensive activity in hypertensive Rattus norvegicus Sprague-Dawley (rat) model assessed as reduction in mean systolic blood pressure level at 0.3 mg/kg, ip after 1 hr by non-invasive tail cuff method. Type of assay: functional, organism-based. On the set-up: dose 0.3 mg/kg. As to conditions: Artery.

For the compound `CCN(Cc1ccccc1)c1ccc(/N=N\c2ccc(S(=O)(=O)Nc3nc(C)cc(C)n3)cc2)cc1`, the result was Active. As for `COc1cc2nc(N3CCN(C(=O)c4ccco4)CC3)nc(N)c2cc1OC`, the outcome was Active. Consider `CCN(CC)c1ccc(/N=N\c2ccc(S(=O)(=O)Nc3nc(C)cc(C)n3)cc2)cc1`, for which the result was Active.

On to `Cc1cc(C)nc(NS(=O)(=O)c2ccc(/N=N\c3ccc(N(C)C)cc3)cc2)n1`, for which the outcome was Active. `CCNc1ccc(/N=N\c2ccc(S(=O)(=O)Nc3nc(C)cc(C)n3)cc2)cc1`: the result was Active.
